From US8362023B2, “Pyrazolo pyrimidines” (Hoffmann-La Roche Inc., priority 2011, dated 2013)
Structures can show the parent of a compound that is named as a salt.

Tests used:
Human DYRK1A = molecular target: T1, Human DYRK1A (Homo sapiens, UniProt Q13627); experiment: DYRK1A Kinase TR-FRET (IMAP-Tb) Assay; assay type: biochemical; settings: for IC50: TR-FRET (IMAP-Tb), ATP 70 μM, 37° C. for 60 minutes, averages of multiple runs, read-out: Enzyme IC50 (μM) DYRK1A
T1 construct: purchased Invitrogen PV3997
Text: DYRK1A Kinase TR-FRET (IMAP-Tb) Assay
The kinase TR-FRET (IMAP-Tb) assay uses a fluorescence labeled substrate peptide in the kinase reaction. Upon phosphorylation by the kinase, phosphopeptide is produced, which will be detected by the binding solution provided in IMAP TR-FRET binding kit. After the completion of the kinase reaction, the reaction will be stopped by adding the binding solution containing terbium tracer. This tracer is immobilized on the surface of the IMAP beads, which also contain metal ions on the beads that bind to the phospho-groups of the products. Thus the phosphorylated product of the reaction can enter into close proximity to the tracer, producing resonance energy transfer. Due to the long lifetime of terbium (Tb) fluorescence the detection can be run in time resolved mode, which virtually eliminates fluorescence interference from assay components or compounds.
The TR-FRET signal measurement from this assay, given as an IC50 measurement, is a measure of a test compound's ability to interfere with the phosphorylation of the peptide substrate, that is it inhibits the phosphorylation of the substrate peptide by DYRK1A, and is thus a measure of the test compound's ability to inhibit the activity of DYRK1A.
Materials and Reagents • 1. Human DYRK1A: from Invitrogen. Part #PV3997 • 2. Substrate Peptide: […] • 3. IMAP TR-FRET IPP Explorer Kit: from Molecular Devices. Part #R8157 • 4. Kinase Assay Buffer (KAB): 10 mM HEPES pH 7.0, 50 mM NaCl, 5 mM MgCl2, 1 mM DTT, 1 mM NaVO4, 200 ug/mL BSA (0.02%) • 5. Assay Plate: Remp polypropylene clear 384-well microplate. […] Detection Plate: Costa black 384-well microplate.
Assay Procedure: this Assay was Performed as Follows: • 1. Transfer 1.5 μL of 20× compound solution to each well of an assay plate. • 2. Add to each well 22.5 μL of KAB Buffer. • 3. Add to each well 3 μL of the solution of DYRK1A and ATP. […] Add to each well 3 μL of the substrate peptide. The assay concentration is 1.0 μM • 5. Incubate the assay plates at 37° C. for 60 minutes. • 6. Add 18 μL of Detection Solution (1:800 diluted Progress bead stock, 1:400 diluted Tb stock, 80% Buffer A, and 20% Buffer B) into each well of detection plates. • 7. Transfer 6 μL of assay solution from the assay plate to the detection plate. • 8. Shake detection plates for 30 minutes. • 9. Read plates in Envision with wavelength set at excitation 340 nm for Tb, emission 490 nm, and […] 520 nm. • 10.

Human DYRK1B = molecular target: T2, Human DYRK1B (Homo sapiens, UniProt Q9Y463); experiment: DYRK1B Kinase TR-FRET (IMAP-Tb) Assay; assay type: biochemical; settings: for inhibition at 10 µM: at 10 μM test compound concentration, where the IC50 was not determined; for IC50: TR-FRET (IMAP-Tb), ATP 70 μM, 37° C. for 60 minutes, averages of multiple runs, read-out: Enzyme IC50 (μM) DYRK1B
T2 construct: purchased Invitrogen PR8350B (former PV4649)
Text: DYRK1B Kinase TR-FRET (IMAP-Tb) Assay Assay Principle The kinase TR-FRET (IMAP-Tb) assay uses a fluorescence labeled substrate peptide in the kinase reaction. Upon phosphorylation by the kinase, phosphopeptide is produced, which will be detected by the binding solution provided in IMAP TR-FRET binding kit. After the completion of the kinase reaction, the reaction will be stopped by adding the binding solution containing terbium tracer. This tracer is immobilized on the surface of the IMAP beads, which also contain metal ions on the beads that bind to the phospho-groups of the products. Thus the phosphorylated product of the reaction can enter into close proximity to the tracer, producing resonance energy transfer. Due to the long lifetime of terbium (Tb) fluorescence the detection can be run in time resolved mode, which virtually eliminates fluorescence interference from assay components or compounds. The TR-FRET signal measurement from this assay, given as an IC50 measurement, is a measure of a test compound's ability to interfere with the phosphorylation of the peptide substrate, that is it inhibits the phosphorylation of the substrate peptide by DYRK1B, and is thus a measure of the test compound's ability to inhibit the activity of DYRK1B. IC50 is the amount of test compound that inhibits 50% of the activity of DYRK1B in this assay. In some cases where the IC50 was not determined, then the % inhibition at 10 μM test compound concentration may be reported. Materials and Reagents • 1. Human DYRK1B: from Invitrogen. Part #PR8350B (former PV4649) • 2. Substrate Peptide: in-house synthesized: RRRFRPASPLRGPPK • 3. IMAP TR-FRET IPP Explorer Kit: from Molecular Devices. Part #R8157 • 4. Kinase Assay Buffer (KAB): 10 mM HEPES pH 7.0, 50 mM NaCl, 5 mM MgCl2, 1 mM DTT, 1 mM NaVO4, 200 μg/mL BSA (0.02%) • 5. Assay Plate: Remp polypropylene clear 384-well microplate. Cat#23490-102 • 6. Detection Plate: Costa black 384-well microplate. Cat #3710 Assay Procedure: this Assay was Performed as Follows: • 1. Transfer 1.5 μL of 20× compound solution to each well of an assay plate. • 2. Add to each well 22.5 μL of KAB Buffer. • 3. Add to each well 3 μL of the solution of DYRK1B and ATP. […] Add to each well 3 μL of the substrate peptide. The assay concentration is 1.0 μM • 5. Incubate the assay plates at 37° C. for 60 minutes. • 6. Add 18 μL of Detection Solution (1:800 diluted Progress bead stock, 1:400 diluted Tb stock, 80% Buffer A, and 20% Buffer B) into each well of detection plates. • 7. Transfer 6 μL of assay solution from the assay plate to the detection plate. • 8. Shake detection plates for 30 minutes. • 9. Read plates in Envision with wavelength set at excitation 340 nm for Tb, emission 490 nm, and […] 520 nm. • 10. Calculation: TR-FRET Signal=(Reading at […]/Reading at 490 nM)×2000000

T2 sequence (Q9Y463 whole entry): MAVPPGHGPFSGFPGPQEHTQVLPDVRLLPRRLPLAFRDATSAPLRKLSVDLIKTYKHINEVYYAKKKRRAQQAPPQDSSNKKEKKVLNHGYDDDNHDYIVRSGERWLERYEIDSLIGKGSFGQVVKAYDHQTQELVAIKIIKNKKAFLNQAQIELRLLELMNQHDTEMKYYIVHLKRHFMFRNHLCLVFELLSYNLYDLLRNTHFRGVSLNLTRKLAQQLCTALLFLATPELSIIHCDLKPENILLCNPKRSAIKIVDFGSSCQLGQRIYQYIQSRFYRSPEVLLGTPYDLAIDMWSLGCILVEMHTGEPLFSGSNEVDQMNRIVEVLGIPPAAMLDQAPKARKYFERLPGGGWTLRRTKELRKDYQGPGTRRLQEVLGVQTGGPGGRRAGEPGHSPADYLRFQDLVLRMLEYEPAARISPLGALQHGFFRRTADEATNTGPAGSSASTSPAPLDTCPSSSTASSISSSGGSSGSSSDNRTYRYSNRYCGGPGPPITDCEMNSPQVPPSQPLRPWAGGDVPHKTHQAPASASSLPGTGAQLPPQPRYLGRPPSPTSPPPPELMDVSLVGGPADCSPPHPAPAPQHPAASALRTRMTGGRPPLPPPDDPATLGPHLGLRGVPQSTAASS

c1ccc(CNc2cccc(-c3n[nH]c4nc(NCCN5CCCCC5)ncc34)n2)cc1 [Example 44, [3-(6-Benzylamino-pyridin-2-yl)-1H-pyrazolo[3,4-d]pyrimidin-6-yl]-(2-piperidin-1-yl-ethyl)-amine]
IC50 (Human DYRK1A): 3.96 µM
inhibition at 10 µM (Human DYRK1B): 32%

c1ccc(CNc2cccc(-c3n[nH]c4nc(NCCN5CCOCC5)ncc34)n2)cc1 [Example 45, [3-(6-Benzylamino-pyridin-2-yl)-1H-pyrazolo[3,4-d]pyrimidin-6-yl]-(2-morpholin-4-yl-ethyl)-amine]
IC50 (Human DYRK1A): 2.31 µM
IC50 (Human DYRK1B): 4.58 µM

c1ccc(CNc2cccc(-c3n[nH]c4nc(NCCN5CCOCC5)ncc34)c2)cc1 [Example 46, [3-(3-Benzylamino-phenyl)-1H-pyrazolo[3,4-d]pyrimidin-6-yl]-(2-morpholin-4-yl-ethyl)-amine]
inhibition at 10 µM (Human DYRK1A; at 10 μM test compound concentration, where the IC50 was not determined): 55%
inhibition at 10 µM (Human DYRK1B): 43%

Clc1ccc(CNc2cccc(-c3n[nH]c4nc(NCCN5CCOCC5)ncc34)n2)cc1 [Example 48, {3-[6-(4-Chloro-benzylamino)-pyridin-2-yl]-1H-pyrazolo[3,4-d]pyrimidin-6-yl}-(2-morpholin-4-yl-ethyl)-amine]
IC50 (Human DYRK1A): 2.96 µM
IC50 (Human DYRK1B): 2.92 µM

Clc1ccc(CNc2cccc(-c3n[nH]c4nc(NCCN5CCOCC5)ncc34)c2)cc1 [Example 50, {3-[3-(4-Chloro-benzylamino)-phenyl]-1H-pyrazolo[3,4-d]pyrimidin-6-yl}-(2-morpholin-4-yl-ethyl)-amine]
IC50 (Human DYRK1A): 4.91 µM
IC50 (Human DYRK1B): > 10 µM

c1cc(NCc2ccsc2)cc(-c2n[nH]c3nc(NCCN4CCOCC4)ncc23)c1 [Example 51, (2-Morpholin-4-yl-ethyl)-(3-{3-[(thiophen-3-ylmethyl)-amino]-phenyl}-1H-pyrazolo[3,4-d]pyrimidin-6-yl)-amine]
IC50 (Human DYRK1A): 9.02 µM
IC50 (Human DYRK1B): > 10 µM

N[C@H]1CC[C@H](Nc2ncc3c(-c4cccc(NCc5ccsc5)n4)n[nH]c3n2)CC1 [Example 65, N-(3-{6-[(Thiophen-3-ylmethyl)-amino]-pyridin-2-yl}-1H-pyrazolo[3,4-d]pyrimidin-6-yl)-cyclohexane-1,4-diamine; hydrochloride]
IC50 (Human DYRK1A): 0.021 µM
IC50 (Human DYRK1B): < 0.005 µM

NCC(Nc1nccc(-c2n[nH]c3nc(N[C@H]4CC[C@H](N)CC4)ncc23)n1)c1ccccc1 (stereo partly drawn) [Example 67, N-{3-[2-(2-Amino-1-phenyl-ethylamino)-pyrimidin-4-yl]-1H-pyrazolo[3,4-d]pyrimidin-6-yl}-cyclohexane-1,4-diamine; hydrochloride]
IC50 (Human DYRK1A): 0.0046 µM
IC50 (Human DYRK1B): 0.00517 µM

NCCC(Nc1nccc(-c2n[nH]c3nc(N[C@H]4CC[C@H](N)CC4)ncc23)n1)c1ccccc1 (stereo partly drawn) [Example 68, N-{3-[2-(3-Amino-1-phenyl-propylamino)-pyrimidin-4-yl]-1H-pyrazolo[3,4-d]pyrimidin-6-yl}-cyclohexane-1,4-diamine; hydrochloride]
IC50 (Human DYRK1A): 0.011 µM
IC50 (Human DYRK1B): 0.011 µM

NCCC(Nc1cccc(-c2n[nH]c3nc(NCCN4CCOCC4)ncc23)c1)c1ccccc1 (stereo not drawn) [Example 73, N1-{3-[6-(2-Morpholin-4-yl-ethylamino)-1H-pyrazolo[3,4-d]pyrimidin-3-yl]-phenyl}-1-phenyl-propane-1,3-diamine; hydrochloride]
IC50 (Human DYRK1A): 4.88 µM
IC50 (Human DYRK1B): 9.59 µM

NCCC(Nc1cccc(-c2n[nH]c3nc(NCCN4CCOCC4)ncc23)n1)c1ccccc1 (stereo not drawn) [Example 75, N1-{6-[6-(2-Morpholin-4-yl-ethylamino)-1H-pyrazolo[3,4-d]pyrimidin-3-yl]-pyridin-2-yl}-1-phenyl-propane-1,3-diamine; hydrochloride]
IC50 (Human DYRK1A): 2.58 µM
IC50 (Human DYRK1B): 2.73 µM

N[C@H]1CC[C@H](Nc2ncc3c(-c4ccnc(NCc5cccc(C(F)(F)F)c5)n4)n[nH]c3n2)CC1 [Example 84, N-{3-[2-(3-Trifluoromethyl-benzylamino)-pyrimidin-4-yl]-1H-pyrazolo[3,4-d]pyrimidin-6-yl}-cyclohexane-1,4-diamine; hydrochloride]
IC50 (Human DYRK1A): 0.005 µM
IC50 (Human DYRK1B): 0.007 µM

N[C@H]1CC[C@H](Nc2ncc3c(-c4ccnc(NCc5cccc(F)c5)n4)n[nH]c3n2)CC1 [Example 85, N-{3-[2-(3-Fluoro-benzylamino)-pyrimidin-4-yl]-1H-pyrazolo[3,4-d]pyrimidin-6-yl}-cyclohexane-1,4-diamine; hydrochloride]
IC50 (Human DYRK1A): 0.0046 µM
IC50 (Human DYRK1B): < 0.0046 µM

Clc1cccc(CNc2nccc(-c3n[nH]c4nc(NC5CCNCC5)ncc34)n2)c1 [Example 86, {3-[2-(3-Chloro-benzylamino)-pyrimidin-4-yl]-1H-pyrazolo[3,4-d]pyrimidin-6-yl}-piperidin-4-yl-amine; hydrochloride]
IC50 (Human DYRK1A): 0.047 µM
IC50 (Human DYRK1B): 0.078 µM

CN(C)CCNc1ncc2c(-c3ccnc(NCc4cccc(Cl)c4)n3)n[nH]c2n1 [Example 87, N-{3-[2-(3-Chloro-benzylamino)-pyrimidin-4-yl]-1H-pyrazolo[3,4-d]pyrimidin-6-yl}-N′,N′-dimethyl-ethane-1,2-diamine; hydrochloride]
IC50 (Human DYRK1A): 0.31 µM
IC50 (Human DYRK1B): 0.69 µM

Clc1cccc(CNc2nccc(-c3n[nH]c4nc(NCC5CCNCC5)ncc34)n2)c1 [Example 88, {3-[2-(3-Chloro-benzylamino)-pyrimidin-4-yl]-1H-pyrazolo[3,4-d]pyrimidin-6-yl}-piperidin-4-ylmethyl-amine; hydrochloride]
IC50 (Human DYRK1A): 0.0089 µM
IC50 (Human DYRK1B): 0.016 µM

N[C@H]1CC[C@@H](Nc2ncc3c(-c4ccnc(NCc5cccc(Cl)c5)n4)n[nH]c3n2)CC1 [Example 89, N-{3-[2-(3-Chloro-benzylamino)-pyrimidin-4-yl]-1H-pyrazolo[3,4-d]pyrimidin-6-yl}-cyclohexane-1,4-diamine; hydrochloride]
IC50 (Human DYRK1A): 0.415 µM
IC50 (Human DYRK1B): 0.186 µM

Clc1cccc(CNc2nccc(-c3n[nH]c4nc(NCCN5CCCC5)ncc34)n2)c1 [Example 90, {3-[2-(3-Chloro-benzylamino)-pyrimidin-4-yl]-1H-pyrazolo[3,4-d]pyrimidin-6-yl}-(2-pyrrolidin-1-yl-ethyl)-amine; hydrochloride]
IC50 (Human DYRK1A): 0.536 µM
IC50 (Human DYRK1B): 1.32 µM
